These results are taken from paper PMC7402352, “Discovery of Novel Non-Steroidal Cytochrome P450 17A1 Inhibitors as Potential Prostate Cancer Agents” (International Journal of Molecular Sciences, 2020).

Common to all, as to type: biochemical
One data set concerns the target T1, human CYP3A4 (Homo sapiens, UniProt P08684).
T1 construct: made in house
Kind of data set: CYP3A4 nifedipine metabolism inhibition assay. To be noted: concentrations up to 10 µM. The text has this: In human drug metabolism, CYP3A4 and CYP2D6 are dominant enzymes and undesired inhibition could potentially alter the pharmacokinetics and reduce the clearance of co-administered drugs. CYP3A4 is particularly important in this respect, with a large and flexible active site able to accommodate many different molecular scaffolds including steroids. […] The most similar steroidogenic human enzyme to CYP17A1 is CYP21A2, which also uses progesterone as a substrate, in this case to form 21-hydroxyprogesterone. Undesired inhibition of this enzyme could adversely impact the biosynthesis of the corticosteroids cortisol and aldosterone which control stress/immune responses and blood pressure, respectively. Abiraterone itself has this liability and is thus co-administered with the synthetic corticosteroid prednisone. […] However, at the same time it might be possible to achieve similar results by altering the nitrogen atom position in the pyridine fragment in compound 1e. […]
Selected inhibitors were tested for off-target inhibition of purified recombinant human CYP3A4 nifedipine metabolism and CYP2D6 dextromethorphan metabolism as described with minor modifications. […] Inhibition of steroidogenic cytochrome P450 21A2 progesterone 21-hydroxylation was evaluated as reported. […]

The target in the next data set is T2, CYP2D6 (Homo sapiens, UniProt P10635).
T2 construct: made in house
Kind of data set: CYP2D6 dextromethorphan metabolism inhibition assay. The settings on record: for IC50: dextromethorphan metabolism. The text has this: (§1) In human drug metabolism, CYP3A4 and CYP2D6 are dominant enzymes and undesired inhibition could potentially alter the pharmacokinetics and reduce the clearance of co-administered drugs. CYP3A4 is particularly important in this respect, with a large and flexible active site able to accommodate many different molecular scaffolds including steroids. […] The most similar steroidogenic human enzyme to CYP17A1 is CYP21A2, which also uses progesterone as a substrate, in this case to form 21-hydroxyprogesterone. Undesired inhibition of this enzyme could adversely impact the biosynthesis of the corticosteroids cortisol and aldosterone which control stress/immune responses and blood pressure, respectively. Abiraterone itself has this liability and is thus co-administered with the synthetic corticosteroid prednisone. […] However, at the same time it might be possible to achieve similar results by altering the nitrogen atom position in the pyridine fragment in compound 1e. Further optimization of 1c is required to eliminate off-target effects on the steroidogenic human CYP21A2 enzyme to prevent disruption of glucocorticoid and mineralocorticoid biosynthesis in vivo. This might be achieved by adding substituents compatible with the CYP17A1 active site topography forming interactions with the bordering Arg239 and/or Asp298 residues, but incompatible with the more spatially constrained CYP21A2 active site, as has been accomplished for abiraterone.
(§2) Selected inhibitors were tested for off-target inhibition of purified recombinant human CYP3A4 nifedipine metabolism and CYP2D6 dextromethorphan metabolism as described with minor modifications. CYP3A4 nifedipine (purchased from Sigma-Aldrich, St. Louis, MO, USA) activity assays were carried out with 200 µM nifedipine for 30 min. The CYP2D6 dextrometorphan (purchased from Sigma-Aldrich, St. Louis, MO, USA) assays were carried out with 100 µM DXM. Inhibition of steroidogenic cytochrome P450 21A2 progesterone 21-hydroxylation was evaluated as reported.
(§3) IC50 curves for compounds inhibiting CYP17A1 progesterone 17-hydroxylation (black circles), […]

Another data set concerns the target T3, cytochrome P450 21A2 (Homo sapiens, UniProt P08686).
T3 construct: made in house
T3 sequence (P08686 1-495): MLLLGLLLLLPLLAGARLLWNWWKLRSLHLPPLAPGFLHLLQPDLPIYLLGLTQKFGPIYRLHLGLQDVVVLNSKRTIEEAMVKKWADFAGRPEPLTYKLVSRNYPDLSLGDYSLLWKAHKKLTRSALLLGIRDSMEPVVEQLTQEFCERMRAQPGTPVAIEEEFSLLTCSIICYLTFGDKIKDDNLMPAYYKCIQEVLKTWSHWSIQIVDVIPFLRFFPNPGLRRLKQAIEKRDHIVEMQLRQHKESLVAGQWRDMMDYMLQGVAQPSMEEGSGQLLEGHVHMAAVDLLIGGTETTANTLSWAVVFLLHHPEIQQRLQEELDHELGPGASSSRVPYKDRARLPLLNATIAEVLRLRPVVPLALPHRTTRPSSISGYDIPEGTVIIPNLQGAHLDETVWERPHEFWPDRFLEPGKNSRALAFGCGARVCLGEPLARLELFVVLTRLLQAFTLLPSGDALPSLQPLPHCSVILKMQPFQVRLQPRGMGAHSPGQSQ
Kind of data set: CYP21A2 progesterone 21-hydroxylation inhibition assay. The settings on record: for IC50: progesterone 21-hydroxylation.
Source text: as §1, §2, §3

T2 sequence (P10635 whole entry): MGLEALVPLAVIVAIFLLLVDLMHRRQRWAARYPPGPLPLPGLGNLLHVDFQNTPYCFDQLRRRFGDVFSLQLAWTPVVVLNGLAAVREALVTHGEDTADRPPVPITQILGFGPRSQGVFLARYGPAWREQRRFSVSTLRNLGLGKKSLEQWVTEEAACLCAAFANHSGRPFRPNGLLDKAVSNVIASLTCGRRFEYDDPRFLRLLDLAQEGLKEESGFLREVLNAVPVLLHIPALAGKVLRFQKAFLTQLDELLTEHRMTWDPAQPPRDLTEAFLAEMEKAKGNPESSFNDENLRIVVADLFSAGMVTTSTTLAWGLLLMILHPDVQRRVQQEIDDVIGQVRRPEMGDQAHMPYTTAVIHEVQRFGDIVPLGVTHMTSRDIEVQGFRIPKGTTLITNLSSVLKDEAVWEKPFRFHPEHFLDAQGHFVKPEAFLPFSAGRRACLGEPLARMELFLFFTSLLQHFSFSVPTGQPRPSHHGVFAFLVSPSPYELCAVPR
T1 sequence (P08684 whole entry): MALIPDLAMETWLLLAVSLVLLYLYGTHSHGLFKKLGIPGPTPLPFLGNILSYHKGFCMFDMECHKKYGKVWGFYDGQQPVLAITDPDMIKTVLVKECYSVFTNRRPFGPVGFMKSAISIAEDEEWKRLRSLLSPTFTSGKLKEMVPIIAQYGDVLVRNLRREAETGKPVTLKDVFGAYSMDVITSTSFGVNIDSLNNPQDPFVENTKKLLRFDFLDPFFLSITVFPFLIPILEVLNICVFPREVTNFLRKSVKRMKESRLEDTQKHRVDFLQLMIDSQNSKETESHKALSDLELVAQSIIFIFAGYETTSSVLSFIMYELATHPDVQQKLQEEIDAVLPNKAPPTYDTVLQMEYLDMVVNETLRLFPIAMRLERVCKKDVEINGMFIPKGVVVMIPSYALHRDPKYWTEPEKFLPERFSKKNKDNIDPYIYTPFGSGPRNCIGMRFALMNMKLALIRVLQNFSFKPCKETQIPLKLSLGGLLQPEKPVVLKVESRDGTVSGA

Regarding `c1ccc2c(c1)ccn2-c1ccc(Nc2ccncc2)cc1` [Compound 1e], the IC50 (usually the concentration needed to halve the response being measured) against human CYP3A4 was above 10000 nM; at CYP2D6, 2500 ± 600 nM; at cytochrome P450 21A2, 190 ± 30 nM. For the same molecule, the “Fold weaker inhibition of CYP2D6 than of CYP17A1” value on CYP2D6 (ratio of IC50 values) stood at 4.5 fold.
With `c1cncc(Nc2ccc(-n3cnc4ccccc43)cc2)c1` [Compound 1c], the results for the IC50 against human CYP3A4, on CYP2D6 and at cytochrome P450 21A2 were above 10000 nM, above 10000 nM and 1500 ± 670 nM, respectively. Moreover, the “Selectivity for CYP17A1 over CYP21A2 inhibition” value on cytochrome P450 21A2 (ratio of IC50 values) is “two-fold”.
